The source of these data is PubChem BioAssay (NCI).

Experiment in all cases: NCI-60 cell line screen, 48 h
Test [1] deals with OVCAR-8 ovarian.
Test [2] has as its system SR leukemia.
In test [3] the test system is NCI-H522 lung.
Test [4] concerns MOLT-4 leukemia.
Test [5] concerns SK-MEL-5 melanoma.
In test [6] the test system is CCRF-CEM leukemia.
The test system of test [7] is SF-295 CNS.
Test [8] deals with HCT-15 colon.
In test [9] the test system is SNB-19 CNS.
The test system of test [10] is UO-31 renal.
Test [11] has as its system SK-OV-3 ovarian.
Test [12] has as its system IGROV1 ovarian.
Test [13] has as its system HOP-92 NSCLC.
Test [14] relates to SK-MEL-2 melanoma.
For test [15], the system named is OVCAR-4 ovarian.
In test [16] the test system is CAKI-1 renal.
Test [17] relates to MDA-MB-435.
Test [18] relates to DU-145 prostate.
Test [19] relates to T-47D breast.

“And” between values parts separate entries of the source, which are not always exact repeats. Identical values can stand only once.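 A five-concentration, 48-hour dose response in 96-well plates underlies each endpoint, interpolated linearly between surrounding concentrations. TGI marks complete inhibition of growth.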 Where a SMILES comes first, the peptide text is derived from it. The star is where a group is joined. Cbz = O=C(OCc1ccccc1)*; Boc = CC(C)(C)OC(=O)*; Bn = c1ccc(C*)cc1

In the case of `O=C1NCCCC12CCCNC2=O`, the TGI in test [1], in test [2], in [3], in [4], in test [5] and in [6] was above 100 µM throughout. The TGI in [7], in test [8], in test [9], in test [10], in test [11] and in test [12] was above 100 µM each time.
Turning to `CC(C)(C)OC(=O)NC(Cc1ccc(OCc2ccccc2)cc1)C(=O)NC(CCCCNC(=O)OCc1ccccc1)C(=O)O` (centres undefined) (Boc-Tyr(Bn)-Lys(Cbz)-OH; configuration not given here), the TGI in [13] is 48.5 µM; in test [1] it was above 100 µM; in [14], 80 µM; in test [2] it was 89.6 µM; in [4], 85.1 µM; in [5] it was above 100 µM. In addition, the TGI in test [6], in test [9], in [10] and in test [12] was above 100 µM each time.
For the molecule `O=C(Cc1ccccc1)NN1C(=O)C(Cl)C1c1ccc([N+](=O)[O-])cc1` (centres undefined), the TGI is above 100 µM in [1]; above 100 µM in [14]; above 100 µM in test [2]; 76.3 µM in [3]; above 100 µM in [4]; above 100 µM in test [5]. Besides, the TGI in test [15], in test [7], in test [16], in [8], in test [9] and in test [10] was above 100 µM in each case. In addition, the TGI in [11] and in test [12] was above 100 µM in each case.
Take `COC(=O)C1=C(C(=O)OC)C2C(C)=CC(C)=CN2C(C#N)=C(SC)S1` (centres undefined): the TGI in [1] came out at 65.9 µM; in test [14], 45.8 µM; in test [2], 50.5 µM; in test [3] it was 46.7 µM; in [4] it was 77.3 µM; in test [5], 30.7 µM. In addition, the TGI was 56.5 µM in [6]; above 100 µM in test [7]; 41.5 µM in test [16]; 44 µM in test [8]; above 100 µM in test [9]; 26.8 µM in test [10]. Also, the TGI in test [11] was above 100 µM.
Turning to `Nc1ccc(C(=O)NN2C(=O)C(Cl)C2c2cc(Br)ccc2O)cc1` (centres undefined), the TGI in test [13] is above 100 µM; in test [1], above 100 µM; in [3], 38.5 µM; in test [5], above 100 µM; in test [15] it was above 100 µM; in test [6], above 100 µM. Besides, the TGI in test [7], in test [16], in [8], in test [9], in [10] and in [11] was above 100 µM throughout. Besides, the TGI in [12] came to 94.3 µM.
Regarding `O=C(O)CSCC(=O)O`, the TGI in test [13], in test [17], in test [1], in test [14], in test [2] and in [3] was above 100 µM in each case. In addition, the TGI in test [4], in test [5], in test [15], in test [6], in [7] and in test [16] was above 100 µM in each case. Further, the TGI in [8], in [9], in test [18], in [10] and in test [12] was above 100 µM in each case.
`OCC1OC(NCCNCCNC2OC(CO)C(O)C(O)C2O)C(O)C(O)C1O` (centres undefined): the TGI in test [13], in [1], in test [14], in test [2], in test [3] and in test [4] was above 100 µM in each case. Moreover, the TGI in test [5] was above 100 µM; in test [19], above 100 µM; in [6], above 100 µM; in [7] it was above 100 µM; in test [16], 10.3 µM and > 100 µM; in [8], above 100 µM. For the same molecule, the TGI in test [9], in [18], in test [10], in test [11] and in test [12] was above 100 µM each time.
Regarding `COP(=O)(OC)C(=NCc1ccccc1)NNc1ccc([N+](=O)[O-])cc1`, the TGI in test [13] was 54.4 µM; in test [1], above 100 µM; in test [14], 52.9 µM; in test [2], 56.9 µM; in test [3] it was 38.6 µM; in test [4] it was 74.8 µM. Further, the TGI was 34.8 µM in test [5]; 90.7 µM in test [15]; 55.1 µM in [6]; 67.4 µM in test [7]; above 100 µM in test [16]; above 100 µM in [8]. The molecule also returned a TGI in test [12] above 100 µM.
As to `COc1c(OC)c(N)c2cc(C)c(=O)c(C)cc2c1N`, the TGI in test [13] was above 100 µM; in test [1], above 100 µM; in test [14], above 100 µM; in test [2], 45.7 µM; in test [3], above 100 µM; in test [4] it was above 100 µM. The TGI in test [5], in test [15], in [6], in test [7], in test [16] and in [8] was above 100 µM in each case. Moreover, the TGI in test [9], in [10], in test [11] and in test [12] was above 100 µM throughout.
On to `CC(=O)CCC(=O)C(=[N+]=[N-])S(=O)(=O)c1ccccc1`, for which the TGI in test [17], in test [1], in [14], in test [2], in [3] and in test [4] was above 100 µM each time. The TGI in test [5], in [6], in test [7], in [8], in test [9] and in test [18] was above 100 µM in each case. In addition, the TGI in [10] and in [12] was above 100 µM each time.
